# Source: a melting point compilation (Tetko et al.; mined from patent text by program, amines drawn as free bases though some values may be those of a salt)
row,Compound,melting point [°C]
1,CNC(=O)C(Cc1ccc(OC)cc1)NC(=O)C(CC(C)C)C(CC(=O)N1CCN(C)CC1)SC(C)=O (centres undefined),133 to 138
2,Cc1nn(CC(F)CO)c(-c2ccc(F)cc2)c1-c1ccc2c(c1)NC(=O)CO2 (centres undefined),193 to 196
3,CCOC(=O)c1cn(C2CC2)c2nc(N3C[C@@H](CNC(C)=O)[C@@H](Cl)C3)c(F)cc2c1=O (relative stereo),213 to 214
4,Oc1ccc2cc(COCC3CC3)ccc2c1,129 to 132
5,CC(C)(C)NC(=O)[C@@H]1C[C@@H]2CCCC[C@@H]2CN1C[C@H]1OC(=O)N[C@H]1Cc1ccccc1,202 to 204
6,OC1c2ccccc2OC12CCCCCC2 (centres undefined),104 to 107
7,COc1ccc(N2CCN(c3ccc(OC)nc3-c3ccc(OC)cc3CO)CC2)cc1,163 to 165
8,CC(C)(C)OC(=O)N1CC(Oc2ccc(N)nc2)C1,83 to 84
9,CC(C)(Br)c1ccc2occ(C#N)c(=O)c2c1,115 to 117
10,CNn1c(C)nn(C(=O)NC(C)(C)C)c1=O,150
11,CN(C)CC1(C2(O)CCCCC2)Cc2cc3ccn(C)c3cc21 (centres undefined),148 to 150
12,Nc1sc(-c2ccoc2)c(CN(C2CCCCC2)C2CCCCC2)c1C(=O)c1ccc(Cl)cc1,132 to 135
13,CCc1[nH]n(C2CCCC2)c2nc(Cc3ccccn3)nc(=O)c1-2,120 to 122
14,c1ccc(OCCSCc2ncc(-c3ccc(N=C(c4ccccc4)c4ccccc4)cc3)o2)cc1,86 to 90
15,CN1CCOC2c3cccc4[nH]cc(c34)CC21 (centres undefined),175 to 177
16,CN(C)c1ccc(-c2nc(S)nnc2-c2ccc(F)cc2)cc1,262 to 264
17,CC(C)=CCC/C(C)=C/COCC(=O)c1cc(C(C)C)c(O)c(C(C)C)c1,70 to 71
18,COc1ccc2c(c1)C(CCNC(=O)C(F)(F)F)=CC2,87 to 88
19,CC(C)Oc1cc(F)c2c(c1)Oc1cc(F)ccc1S2(=O)=O,148 to 151
20,CN(Cc1sc2c(=O)c(C(=O)NCc3ccc(Cl)cc3)cn(C)c2c1COCC[Si](C)(C)C)CC(O)c1ccc2ccccc2n1 (centres undefined),163 to 166
21,CC(=O)OC1CCC2(C)C(=CC(=O)C3C2CCC2(C)C(C(C)CCCC(C)C)CCC32)C1 (centres undefined),151 to 154
22,O=c1cc2c(nn1-c1ccc(Cl)cc1)-c1cc(CO)sc1CC2,195 to 197
23,CC1(C)C(C=C(Cl)Cl)C1C(N)=O (centres undefined),78 to 81

row,Compound,melting point [°C]
1,Cc1oc(C=Cc2cccc(C(F)(F)F)c2)nc1CCl,99 to 100
2,CC(C)Cn1cc(F)c(-n2cncn2)nc1=O,150 to 153
3,CC(C)(C)c1cc(Cl)c2c(c1)CNS(=O)(=O)O2,158 to 160
4,O=C(Nc1ccc2[nH]ncc2c1)O[C@@H](c1cccc(C(F)(F)F)c1)[C@@H]1CCCCN1,190
5,CCN(CC)CCNC(=O)c1cc(Cl)c(N)cc1OCCN,97 to 99
6,CCC1(CC)C(=O)c2cc(O)c(C)c(C)c2C1=O,141 to 142
7,Nc1ccc(CCn2cccn2)cc1,73 to 74
8,Cc1ccc2c(c1)[C@H](Nc1nc(N)nc(C(F)F)n1)[C@@H](C)C2,132 to 134
9,NC(=O)C1CCN(c2c(Br)cncc2Br)CC1,158 to 160
10,C[C@H]1CN(C(c2ccccc2)(c2ccccc2)c2ccccc2)CCN1c1ccc(C(F)(F)F)c(Cl)n1,210
11,Cc1cc(C(C)(C)C(=O)O)ccc1O,145 to 146
12,NCc1cc(Cl)ccc1OCC(N)=O,135 to 137
13,O=C(O)[C@H](Cc1ccc(-c2ccccc2)cc1)NCP(=O)(Oc1ccccc1)Oc1ccccc1,118 to 119
14,CC(=O)OCC1=C(C(=O)OC(c2ccccc2)c2ccccc2)N2C(=O)C(NC(=O)Cc3csc(-c4ncccc4O)n3)C2SC1 (centres undefined),176 to 178
15,CCC1Oc2cccc3nc4c(c(c23)NC1=O)CCCC4 (centres undefined),182 to 183
16,Cc1c(C)c(N2CCN(c3ccc(C(C)C)cc3)CC2)c(C)c2c1OC(C)(CO)C2 (centres undefined),160 to 163
17,Cc1nc(-c2cccc(-n3cnc4cc(-c5ccoc5)ccc43)c2)cs1,136 to 138
18,CC(C)(C)OC(=O)N1CCN(S(=O)(=O)c2ccc(N)c(Cl)c2)CC1,243 to 244
19,O=c1ccn(CCO)c(Cc2cccc(F)c2)c1O,235 to 242
20,CCCN(CCC)[C@@H]1Cc2c(-c3ncco3)ccc3c2[C@H](CN3)C1,103 to 104
21,CC(C)(CO)NC(=O)c1nn(-c2ccc(F)cc2)c2c1C1CCC2CC1,165 to 168
22,O=C(O)c1ccc(COCc2csc3nc(C(=O)NCc4ccc(F)c(Cl)c4)[nH]c(=O)c23)cc1,228 to 230
23,COc1cccc2nc3[nH]c(=O)[nH]c3cc12,> 300

# Further lines, results first:
row,melting point [°C],Compound
1,137 to 140,COc1ccc(S(=O)(=O)Nc2ccc(COc3ccc4c(c3)CCC(CN(C)C)C4)cc2)cc1 (centres undefined)
2,102 to 103,N#Cc1ccc(-c2c[nH]nc2C(F)(F)F)cc1SCC1CCC1
3,49 to 52,COC(=O)C(=O)N1C(=O)[C@H](N2C(=O)c3ccccc3C2=O)[C@H]1Cl
4,89 to 90,N#CC(C=N)CC(=O)c1ccccc1 (centres undefined)
5,107 to 114,CC(C)(C)NC(=O)[C@@H]1CCCN1C(=O)[C@@H](O)[C@H](Cc1ccccc1)NC(=O)[C@H](CC(N)=O)NC(=O)COc1ccccc1N
6,114 to 118,CC(=O)SCCN(CCc1ccccc1)C(=O)N[C@@H](Cc1ccc([N+](=O)[O-])cc1)C(=O)NCCC(=O)O
7,127 to 128,O=C(Cc1ccccc1)c1ccc(C(F)(F)F)cc1
8,210 to 212,CCOC(=O)c1ncc2[nH]c3ccc(Oc4ccc(Br)cn4)cc3c2c1COC
9,72 to 73,CN(C)CCCOc1ccc(-c2nnc(CSCCOc3ccccc3)s2)cc1
10,76 to 78,CS(=O)c1ccc(Oc2ccc([N+](=O)[O-])cc2)cc1 (centres undefined)
11,131 to 133,Cc1cc(OCc2ccc(-c3ccc(OC(F)(F)F)cc3)nc2C2CC2)ccc1OC(C)(C)C(=O)O
12,188 to 190,NS(=O)(=O)c1cc(S(N)(=O)=O)c(C(Cl)=C(Cl)Cl)cc1NCc1ccccc1
13,73 to 74,CCOC(=O)CCc1ccc(OCc2ccc(Cn3nc(C(C)(C)C)cc3C(C)(C)C)cc2)cc1F
14,221,COc1ccc(NC(=O)c2ccc([N+](=O)[O-])cc2NC(=O)c2ccc(C(C)(C)C)cc2)cc1
15,251 to 253,CCc1[nH]cc2c1-c1ccc(Cl)cc1C(c1ccccc1Cl)=NC2
16,79 to 80,CCOc1ccccc1C(=O)SSc1ccc([N+](=O)[O-])cc1C(Cl)(Cl)Cl
17,255 to 257,O=C(O)c1ccc(CCNc2c(C(=O)O)cc(Cl)cc2[N+](=O)[O-])cc1
18,119 to 122,OCc1ccc(Nc2ccccc2)nc1
19,59.5 to 60.5,COc1cc(CCC=CC(C)=O)ccc1OCc1ccccc1
20,206 to 207,Cn1c2ccccc2c(=NN=C2NCCS2)c2c(Cl)cccc21
21,207 to 208,COc1ccc2c(c1)C(C)(N1C(=O)c3ccccc3C1=O)C(=O)N2c1ccc(F)cc1 (centres undefined)
22,198 to 200,Cc1c(CC(=O)O)c2ccccc2c(=O)n1O
23,191 to 195,CC(C)n1cc(C(=O)NCc2ccc(Cl)cc2)c(=O)c2cc(CN3CCOCC3)sc21
24,90,Cc1nn(CCOc2ccc(C=O)cc2)c(=O)c2ccccc12
25,274,O=c1[nH]c(=O)n(CCO)c2ccccc12
26,142 to 145,O=C(C1=NN(CC(F)(F)F)C(=O)CN1)c1ccccc1
27,81 to 83,C#Cc1ccc(-c2c(F)cccc2F)cc1

row,melting point [°C],Compound
1,53 to 54,C[Si](C)(c1ccccc1)c1ccccc1CO
2,114 to 116,CC(=O)c1ccc(OCCCC(=O)O)c(C)c1
3,252 to 257,COCCNC(=O)Nc1nc2ccc(Sc3nnc4ccccn34)cc2s1
4,98 to 102,Nc1c(Cl)nc2ccccc2c1NCc1ccccn1
5,176 to 179,COc1nc(C)nc(NC(=O)NS(=O)(=O)c2ccccc2C(=O)Nc2nc[nH]n2)n1
6,123 to 124,CCOC(=O)c1cn2c(-c3ccccc3)cccc2n1
7,105,COC(=O)Cc1c(C(=O)OC)oc2ccccc2c1=O
8,113,CCC(C(=O)c1ccc(Cl)cc1)n1ncn(-c2ccc(N3CCN(c4cc(C)cc(C)n4)CC3)nc2)c1=O (centres undefined)
9,166 to 167,CCOCc1nc2cnc3cc(-c4ccccc4)ccc3c2n1CC1CCN(C(=O)OC(C)(C)C)CC1
10,208 to 212,CC(C)OC(=O)N1CC(=S)Nc2ccc(-c3cccc(Cl)c3)cc21
11,153 to 155,Cc1ccc(-c2cn(C)cc(-c3ccccc3)c2=O)c(C)c1
12,96 to 98,CS(=O)(=O)Nc1ccc(OCCBr)c(Cl)c1
13,120 to 124,O=C(NCC12CC3CC(CC(C3)C1)C2)c1cc(-c2cc(F)ccc2C(=O)O)ccc1Cl
14,196 to 197,Cn1ccc(-c2ccc(C(=O)N3Cc4cccnc4Nc4ccccc43)c(Cl)c2)n1
15,192 to 193,NS(=O)(=O)c1ccc(-c2ccccc2-c2ccc(F)c(Cl)c2)cc1
16,96 to 99,CC(=O)N1CCC(C(=O)N(CCCN2CCC(Cc3ccccc3)CC2)c2ccc(C)c(Cl)c2)CC1
17,184 to 186,Cc1ccc2cc([N+](=O)[O-])c3ccc(C)nc3c2n1
18,227 to 229,NC(=O)NN=C1CCCCC1n1nc(-c2c(-c3ccccc3)nn3ccccc23)ccc1=O (centres undefined)
19,214 to 215,CC(C)n1cc(-c2c(-c3ccc(F)cc3)nn3ccncc23)ccc1=O
20,188 to 190,Cn1c(=O)cc(CBr)c2ccccc21
21,177,Cc1ccc(C(C)N(O)C(=O)c2ccc(S(C)(=O)=O)cc2)o1 (centres undefined)
22,108,COc1ccc(Cl)cc1C(=O)c1cc(Cl)ccc1OC
23,68 to 70,O=[N+]([O-])c1ccc(Oc2ccc(CBr)cc2)cc1
24,74 to 75,CCOC(=O)CCCn1ccnc1CSc1ccc(N)cc1
25,219,CC(C)(C)OC(=O)N1CCC(OCc2ccccc2)C1CC(O)Cn1cnc2cccc(F)c2c1=O (centres undefined)
26,200 to 203,COc1cccc(N2CC(=O)N(c3ccc(S(N)(=O)=O)cc3Cl)C2)c1
